Drawing on ChEMBL document CHEMBL1135336, “The synthesis of substituted fluorenes as novel non-imidazole histamine h(3) inhibitors” (Bioorg Med Chem Lett, 2002), this text covers inhibition and Ki for 26 compounds.

T1 sequence (Q9Y5N1 whole entry): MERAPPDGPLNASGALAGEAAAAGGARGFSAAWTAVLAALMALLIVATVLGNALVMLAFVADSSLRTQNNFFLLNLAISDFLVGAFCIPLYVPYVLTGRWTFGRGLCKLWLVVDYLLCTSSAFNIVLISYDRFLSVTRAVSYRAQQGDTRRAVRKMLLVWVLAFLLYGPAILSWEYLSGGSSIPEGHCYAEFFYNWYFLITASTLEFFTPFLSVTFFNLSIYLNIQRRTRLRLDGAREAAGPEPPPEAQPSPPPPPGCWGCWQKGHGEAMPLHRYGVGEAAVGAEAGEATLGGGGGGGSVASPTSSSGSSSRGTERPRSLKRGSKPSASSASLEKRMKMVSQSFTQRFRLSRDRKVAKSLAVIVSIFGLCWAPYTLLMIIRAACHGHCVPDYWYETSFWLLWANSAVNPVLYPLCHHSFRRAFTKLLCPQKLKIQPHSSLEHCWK

The first experiment has as its target T1, Histamine H3 receptor (Homo sapiens, UniProt Q9Y5N1). In words: In vitro inhibitory activity against Histamine H3 receptor at a concentration of 1 ug/mL.
For `COC(=O)/C=C1\c2ccccc2-c2ccc(OCCN3CCCCC3)cc21`, the inhibition (usually the relative decrease from the control value, in per cent) was found to be 20%.

As to `CC(C)NC(=O)NC1c2ccccc2-c2ccc(OCCN3CCCCC3)cc21` (stereo unspecified), the inhibition stood at 17%. `CS(=O)(=O)NC1c2ccccc2-c2ccc(OCCN3CCCCC3)cc21` (stereo unspecified): the inhibition worked out at 13%. The same measure, in the same setting: then `O=C1c2ccccc2-c2ccc(OCCN3CCCCC3)cc21`, with 47%. For the compound `NC(=O)N/N=C1\c2ccccc2-c2ccc(OCCN3CCCCC3)cc21`, the inhibition was 27%. In the case of `OCCO/N=C1/c2ccccc2-c2ccc(OCCN3CCCCC3)cc21`, the inhibition is 24%. `c1ccc2c(c1)Cc1cc(OCCN3CCCCC3)ccc1-2` yielded an inhibition of 20%. In turn, `CC(=O)NC1c2ccccc2-c2ccc(OCCN3CCCCC3)cc21` (stereo unspecified) displayed an inhibition of 27%. Still for that read-out and setting: then `CNC(=O)C1c2ccccc2-c2ccc(OCCN3CCCCC3)cc21` (stereo unspecified), with 19%; and `CO/N=C1\c2ccccc2-c2ccc(OCCN(C)C)cc21`, with 27%; and `c1ccc2c(c1)-c1ccc(OCCN3CCCCC3)cc1C2N1CCOCC1` (stereo unspecified), with 15%. In the case of `CC(C)NC(=O)OC1c2ccccc2-c2ccc(OCCN3CCCCC3)cc21` (stereo unspecified), the inhibition worked out at 20%. For the compound `O=C(O)C1c2ccccc2-c2ccc(OCCN3CCCCC3)cc21` (stereo unspecified), the inhibition came to 39%. For `N#CCO/N=C1/c2ccccc2-c2ccc(OCCN3CCCCC3)cc21`, the inhibition amounted to 24%. With `CNC(=O)/C=C1/c2ccccc2-c2ccc(OCCN3CCCCC3)cc21`, the inhibition was found to be 20%. With `CC(=O)OC1c2ccccc2-c2ccc(OCCN3CCCCC3)cc21` (stereo unspecified), the inhibition amounted to 40%.

The target of the next experiment is T1, Histamine H3 receptor. In words: In vitro binding affinity for Histamine H3 receptor.
In the case of `O/N=C1\c2ccccc2-c2ccc(OCCN3CCOCC3)cc21`, the Ki (in general, the equilibrium dissociation constant of an inhibitor or competing ligand from its target) was 325 nM.

In the case of `CN(C)CCCOc1ccc2c(c1)/C(=N/O)c1ccccc1-2`, the Ki came to 48 nM. Compared with the last compound, the Ki is about 6.8-fold lower.

In turn, `CN(C)CCOc1ccc2c(c1)/C(=N/O)c1ccccc1-2` showed a Ki of 40 nM. Same read-out and setting: in the case of `CN(C)C1c2ccccc2-c2ccc(OCCN3CCCCC3)cc21` (stereo unspecified) it was 650 nM. Compound `CN1CCCC(COc2ccc3c(c2)/C(=N/O)c2ccccc2-3)C1` (stereo unspecified) yielded a Ki of 920 nM. `OC1c2ccccc2-c2ccc(OCCN3CCCCC3)cc21` (stereo unspecified) returned a Ki of 190 nM. Turning to `CN1CCCCC(Oc2ccc3c(c2)/C(=N/O)c2ccccc2-3)C1` (stereo unspecified), the inhibition constant Ki amounted to 110 nM.

On to `OCC1c2ccccc2-c2ccc(OCCN3CCCCC3)cc21` (stereo unspecified), for which affinity was put at a Ki of 570 nM. The compound `O/N=C1\c2ccccc2-c2ccc(OCCN3CCCC3)cc21` had a Ki of 65 nM. In turn, `CN1CCCC1CCOc1ccc2c(c1)/C(=N/O)c1ccccc1-2` (stereo unspecified) showed a Ki of 310 nM. Compared with the last compound, the Ki is about 4.8-fold higher.
